# Laboratory results: patent US20250000868A1, “USE OF ADENOSINE A2B RECEPTOR AS TARGET IN DRUGS FOR PREVENTION AND/OR TREATMENT OF PRURITUS” (The Fourth Affiliated Hospital, ZJU, priority 2023, published 2025)
# Entries after “also recorded” stand apart in the source; their conditions may differ.
# What was measured:
# adenosine A2B receptor [1] = biological target: T1, adenosine A2B receptor (Mus musculus, UniProt Q60614); experiment: Histamine-induced scratching behavioral experiment; type: in vivo; conditions: for number of histamine-induced scratches: within 30 min before histamine 250 μg/50 μL s.c. neck, scratches recorded within 30 min
# T1 construct: from tissue; host or cells: living mouse; intrathecal dosing, receptor expressed in dorsal root ganglion neurons
# T1 sequence (Q60614 1-332): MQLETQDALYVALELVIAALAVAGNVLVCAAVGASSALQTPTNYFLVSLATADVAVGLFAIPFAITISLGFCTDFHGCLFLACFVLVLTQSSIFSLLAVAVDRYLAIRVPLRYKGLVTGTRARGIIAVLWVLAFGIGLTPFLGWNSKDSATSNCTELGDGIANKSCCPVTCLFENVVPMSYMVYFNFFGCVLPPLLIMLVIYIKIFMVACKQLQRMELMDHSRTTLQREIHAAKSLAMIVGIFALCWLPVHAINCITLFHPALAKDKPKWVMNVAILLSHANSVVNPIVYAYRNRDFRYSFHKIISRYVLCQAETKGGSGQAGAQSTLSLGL
# Description: (§1) Refer to the prior art (Jang et al., 2015) for scratching behavior. The specific operation method was as follows: each mouse neck hair was shaved two days before the experiment, and the mouse was housed in a transparent organic plastic chamber to receive acclimatization training for two consecutive days, at least 1 h a day. Adjacent transparent plastic chambers were separated by a piece of white paper to eliminate mutual interference between mice. On the day of the experiment, histamine (250 μg/50 μL) was subcutaneously injected into the mouse neck and the mice were immediately placed in the transparent plastic chamber to record scratching behaviors within 30 min using a camera. One effective scratch was defined as follows: a mouse lifted its hind leg to scratch the skin at the […] injection site and put the hind leg down, and despite the number of scratches in the interval between lifting the hind leg and putting it down, an effective scratching behavior was considered. To evaluate the antipruritic effect of PSB-603, the mice received an intrathecal injection of PSB-603 (the administration dose was 10 μL, and the dosing concentration was 1 or 10 μM) within 30 min before histamine injection.
# (§2) Using a pharmacological method, the adenosine A2B receptor activity is blocked by intrathecal injection of selective adenosine A2B receptor antagonist PSB-603. […] Moreover, alleviating the effect of PSB-603 on scratch is related to the dose. […] Therefore, inhibition of the adenosine A2B receptor is an effective way to treat pruritus.
# adenosine A2B receptor [2] = biological target: T1, adenosine A2B receptor; experiment: Chloroquine-induced scratching behavioral experiment; type: in vivo; conditions: for number of chloroquine-induced scratches: within 30 min before chloroquine 200 μg/50 μL s.c. neck, scratches recorded within 30 min
# Description: as §1, with “the experiment, chloroquine (200 μg/50 μL)” for “the experiment, histamine (250 μg/50 μL)”, “concentration was 1, 10 or 20” for “concentration was 1 or 10”, “10 or 20 μM) within” for “1 or 10 μM) within”, “min before chloroquine injection.” for “min before histamine injection.”
# as §2
# [3] = PSB-603 intrathecal 10 μL at 10 μM
smiles,measurement,setting,value
CCCn1c(=O)[nH]c2nc(-c3ccc(S(=O)(=O)N4CCN(c5ccc(Cl)cc5)CC4)cc3)[nH]c2c1=O [PSB-603],number of histamine-induced scratches,adenosine A2B receptor [1]; [3],reduces the number of histamine-induced scratches
same,number of histamine-induced scratches,adenosine A2B receptor [1]; PSB-603 intrathecal 10 μL at dose of 1 μM,the number of animal scratches cannot be reduced
same,"histamine-induced scratching behaviors, overall effect","adenosine A2B receptor [1]; intrathecal injection of PSB-603 in advance, 1 or 10 μM, FIG. 3C",dose-dependent inhibition; also recorded: can effectively prevent histamine-induced scratching behaviors
same,number of chloroquine-induced scratches,adenosine A2B receptor [2]; [3],reduces the number of chloroquine-induced scratches
same,number of chloroquine-induced scratches,adenosine A2B receptor [2]; PSB-603 intrathecal 10 μL at 20 μM,reduces the number of chloroquine-induced scratches
same,"chloroquine-induced scratching behaviors, overall effect","adenosine A2B receptor [2]; intrathecal injection of PSB-603 in advance, 1, 10 or 20 μM, FIG. 4",dose-dependent inhibition; also recorded: can effectively prevent chloroquine-induced scratching behaviors
